In patent US7964531B2, “3-phenoxy-4-pyridazinol derivatives and herbicidal composition containing the same” (Mitsui Chemicals Agro, Inc., priority 2001, dated 2011):

What was measured:
Type in all cases: in vivo
Conditions in all cases: wettable powder applied 3 days after transplanting, judged after 25 days
[1] = test system: transplanted paddy-field rice; assay: Test Example 1: crop injury against transplanted paddy-field rice
Method in brief: (§1)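 Paddy soil pots sown with dormancy-broken weed seeds mixed into the top 1 cm, plus germinated Cyperus serotinus tubers and transplanted 2.2-leaf rice seedlings, grown flooded in a greenhouse. Water-diluted wettable powder applied 3 days after transplanting; growth inhibition scored 25 days later on a 0–5 scale (0 = 0–10%, 5 = 91–100%).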

Cyperus serotinus = assay: Test Example 1: herbicidal effects, paddy-field pot test
Method in brief: as §1

[2] = test system: barnyardgrass (Echinochloa oryzicola Vasing.); assay: as above
Method in brief: as §1

Scirpus joncoides = assay: as above
Method in brief: as §1

[3] = test system: annual broad-leaved weeds (Lindernia spp., Rotala indica); assay: as above
Method in brief: as §1

| Compound | Crop injury against transplanted rice ([1]; chemical dosage 12.5 g/a) | Crop injury against transplanted rice ([1]; chemical dosage 25 g/a) | Herbicidal effects Cyperus serotinus (Cyperus serotinus; chemical dosage 12.5 g/a) | Herbicidal effects Cyperus serotinus (Cyperus serotinus; chemical dosage 25 g/a) | Herbicidal effects Barnyard grass ([2]; chemical dosage 12.5 g/a) | Herbicidal effects Barnyard grass ([2]; chemical dosage 25 g/a) | Herbicidal effects Scirpus joncoides (Scirpus joncoides; chemical dosage 12.5 g/a) | Herbicidal effects Scirpus joncoides (Scirpus joncoides; chemical dosage 25 g/a) | Herbicidal effects Broad leaf ([3]; chemical dosage 12.5 g/a) | Herbicidal effects Broad leaf ([3]; chemical dosage 25 g/a) | Crop injury against transplanted rice ([1]; chemical dosage 10 g/a) | Crop injury against transplanted rice ([1]; chemical dosage 20 g/a) | Herbicidal effects Cyperus serotinus (Cyperus serotinus; chemical dosage 10 g/a) | Herbicidal effects Cyperus serotinus (Cyperus serotinus; chemical dosage 20 g/a) | Herbicidal effects Barnyard grass ([2]; chemical dosage 10 g/a) | Herbicidal effects Barnyard grass ([2]; chemical dosage 20 g/a) | Herbicidal effects Scirpus joncoides (Scirpus joncoides; chemical dosage 10 g/a) | Herbicidal effects Scirpus joncoides (Scirpus joncoides; chemical dosage 20 g/a) | Herbicidal effects Broad leaf ([3]; chemical dosage 10 g/a) | Herbicidal effects Broad leaf ([3]; chemical dosage 20 g/a) |
| --- | --- | --- | --- | --- | --- | --- | --- | --- | --- | --- | --- | --- | --- | --- | --- | --- | --- | --- | --- | --- |
| CCc1cccc(CC)c1Oc1nnc(Cl)cc1O [Example 268] | 1 (Growth inhibition rate; 11 to 30%) | 1 (Growth inhibition rate; 11 to 30%) | 5 (Growth inhibition rate; 91 to 100%) | 5 (Growth inhibition rate; 91 to 100%) | 0 (Growth inhibition rate; 0 to 10%) | 1 (Growth inhibition rate; 11 to 30%) | 5 (Growth inhibition rate; 91 to 100%) | 5 (Growth inhibition rate; 91 to 100%) | 5 (Growth inhibition rate; 91 to 100%) | 5 (Growth inhibition rate; 91 to 100%) |  |  |  |  |  |  |  |  |  |  |
| CCc1cccc(C2CC2)c1Oc1nnc(Cl)cc1O [Example 269] |  |  |  |  |  |  |  |  |  |  | 3 (Growth inhibition rate; 51 to 70%) | 5 (Growth inhibition rate; 91 to 100%) | 5 (Growth inhibition rate; 91 to 100%) | 5 (Growth inhibition rate; 91 to 100%) | 2 (Growth inhibition rate; 31 to 50%) | 3 (Growth inhibition rate; 51 to 70%) | 5 (Growth inhibition rate; 91 to 100%) | 5 (Growth inhibition rate; 91 to 100%) | 5 (Growth inhibition rate; 91 to 100%) | 5 (Growth inhibition rate; 91 to 100%) |
| CC(C)c1cccc(C2CC2)c1Oc1nnc(Cl)cc1O [Example 272] |  |  |  |  |  |  |  |  |  |  | 0 (Growth inhibition rate; 0 to 10%) | 0 (Growth inhibition rate; 0 to 10%) | 4 (Growth inhibition rate; 71 to 90%) | 4 (Growth inhibition rate; 71 to 90%) | 0 (Growth inhibition rate; 0 to 10%) | 0 (Growth inhibition rate; 0 to 10%) | 4 (Growth inhibition rate; 71 to 90%) | 5 (Growth inhibition rate; 91 to 100%) | 5 (Growth inhibition rate; 91 to 100%) | 5 (Growth inhibition rate; 91 to 100%) |
| CC(C)(C)c1cccc(C2CC2)c1Oc1nnc(Cl)cc1O [Example 274] |  |  |  |  |  |  |  |  |  |  | 0 (Growth inhibition rate; 0 to 10%) | 0 (Growth inhibition rate; 0 to 10%) | 4 (Growth inhibition rate; 71 to 90%) | 4 (Growth inhibition rate; 71 to 90%) | 3 (Growth inhibition rate; 51 to 70%) | 3 (Growth inhibition rate; 51 to 70%) | 3 (Growth inhibition rate; 51 to 70%) | 4 (Growth inhibition rate; 71 to 90%) | 5 (Growth inhibition rate; 91 to 100%) | 5 (Growth inhibition rate; 91 to 100%) |
| Oc1cc(Cl)nnc1Oc1c(C2CC2)cccc1C1CC1 [Example 275] |  |  |  |  |  |  |  |  |  |  | 1 (Growth inhibition rate; 11 to 30%) | 3 (Growth inhibition rate; 51 to 70%) | 5 (Growth inhibition rate; 91 to 100%) | 5 (Growth inhibition rate; 91 to 100%) | 4 (Growth inhibition rate; 71 to 90%) | 4 (Growth inhibition rate; 71 to 90%) | 5 (Growth inhibition rate; 91 to 100%) | 5 (Growth inhibition rate; 91 to 100%) | 5 (Growth inhibition rate; 91 to 100%) | 5 (Growth inhibition rate; 91 to 100%) |
| COc1cccc(C2CC2)c1Oc1nnc(Cl)cc1O [Example 276] |  |  |  |  |  |  |  |  |  |  | 0 (Growth inhibition rate; 0 to 10%) | 0 (Growth inhibition rate; 0 to 10%) | 5 (Growth inhibition rate; 91 to 100%) | 5 (Growth inhibition rate; 91 to 100%) | 3 (Growth inhibition rate; 51 to 70%) | 4 (Growth inhibition rate; 71 to 90%) | 3 (Growth inhibition rate; 51 to 70%) | 4 (Growth inhibition rate; 71 to 90%) | 5 (Growth inhibition rate; 91 to 100%) | 5 (Growth inhibition rate; 91 to 100%) |
| CCOc1cccc(C2CC2)c1Oc1nnc(Cl)cc1O [Example 277] |  |  |  |  |  |  |  |  |  |  | 0 (Growth inhibition rate; 0 to 10%) | 0 (Growth inhibition rate; 0 to 10%) | 5 (Growth inhibition rate; 91 to 100%) | 5 (Growth inhibition rate; 91 to 100%) | 0 (Growth inhibition rate; 0 to 10%) | 1 (Growth inhibition rate; 11 to 30%) |  | 5 (Growth inhibition rate; 91 to 100%) | 5 (Growth inhibition rate; 91 to 100%) | 5 (Growth inhibition rate; 91 to 100%) |
| Cc1cc(C)cc(Oc2nnc(Cl)cc2O)c1 [Example 281] | 0 (Growth inhibition rate; 0 to 10%) | 0 (Growth inhibition rate; 0 to 10%) | 5 (Growth inhibition rate; 91 to 100%) | 5 (Growth inhibition rate; 91 to 100%) | 0 (Growth inhibition rate; 0 to 10%) | 0 (Growth inhibition rate; 0 to 10%) | 2 (Growth inhibition rate; 31 to 50%) | 3 (Growth inhibition rate; 51 to 70%) | 5 (Growth inhibition rate; 91 to 100%) | 5 (Growth inhibition rate; 91 to 100%) |  |  |  |  |  |  |  |  |  |  |
| Cc1cc(Oc2nnc(Cl)cc2O)cc(C(C)C)c1 [Example 282] | 0 (Growth inhibition rate; 0 to 10%) | 0 (Growth inhibition rate; 0 to 10%) | 4 (Growth inhibition rate; 71 to 90%) | 5 (Growth inhibition rate; 91 to 100%) | 0 (Growth inhibition rate; 0 to 10%) | 0 (Growth inhibition rate; 0 to 10%) | 3 (Growth inhibition rate; 51 to 70%) | 4 (Growth inhibition rate; 71 to 90%) | 5 (Growth inhibition rate; 91 to 100%) | 5 (Growth inhibition rate; 91 to 100%) |  |  |  |  |  |  |  |  |  |  |
| Cc1cc(C)c(Br)c(Oc2nnc(Cl)cc2O)c1 [Example 285] |  |  |  |  |  |  |  |  |  |  | 0 (Growth inhibition rate; 0 to 10%) | 0 (Growth inhibition rate; 0 to 10%) | 2 (Growth inhibition rate; 31 to 50%) | 3 (Growth inhibition rate; 51 to 70%) | 0 (Growth inhibition rate; 0 to 10%) | 0 (Growth inhibition rate; 0 to 10%) | 4 (Growth inhibition rate; 71 to 90%) | 5 (Growth inhibition rate; 91 to 100%) | 5 (Growth inhibition rate; 91 to 100%) | 5 (Growth inhibition rate; 91 to 100%) |
| Cc1cc(C)c(C)c(Oc2nnc(Cl)cc2O)c1 [Example 286] | 0 (Growth inhibition rate; 0 to 10%) | 0 (Growth inhibition rate; 0 to 10%) | 5 (Growth inhibition rate; 91 to 100%) | 5 (Growth inhibition rate; 91 to 100%) | 0 (Growth inhibition rate; 0 to 10%) | 0 (Growth inhibition rate; 0 to 10%) | 5 (Growth inhibition rate; 91 to 100%) | 5 (Growth inhibition rate; 91 to 100%) | 5 (Growth inhibition rate; 91 to 100%) | 5 (Growth inhibition rate; 91 to 100%) |  |  |  |  |  |  |  |  |  |  |
| CCCc1c(C)cc(C)cc1Oc1nnc(Cl)cc1O [Example 287] | 0 (Growth inhibition rate; 0 to 10%) | 0 (Growth inhibition rate; 0 to 10%) | 1 (Growth inhibition rate; 11 to 30%) | 3 (Growth inhibition rate; 51 to 70%) | 0 (Growth inhibition rate; 0 to 10%) | 0 (Growth inhibition rate; 0 to 10%) | 5 (Growth inhibition rate; 91 to 100%) | 5 (Growth inhibition rate; 91 to 100%) | 5 (Growth inhibition rate; 91 to 100%) | 5 (Growth inhibition rate; 91 to 100%) |  |  |  |  |  |  |  |  |  |  |
| CSc1c(C)cc(C)cc1Oc1nnc(Cl)cc1O [Example 289] | 0 (Growth inhibition rate; 0 to 10%) | 0 (Growth inhibition rate; 0 to 10%) | 4 (Growth inhibition rate; 71 to 90%) | 5 (Growth inhibition rate; 91 to 100%) | 0 (Growth inhibition rate; 0 to 10%) | 0 (Growth inhibition rate; 0 to 10%) | 4 (Growth inhibition rate; 71 to 90%) | 5 (Growth inhibition rate; 91 to 100%) | 4 (Growth inhibition rate; 71 to 90%) | 5 (Growth inhibition rate; 91 to 100%) |  |  |  |  |  |  |  |  |  |  |
